Series [1] has as its target T1, P-gp (MDR1 expressing LLC-PK1 cells) (Homo sapiens, UniProt P08183).
T1 construct: host or cells: LLC-PK1 (porcine kidney) cells
The series is described as follows: P-gp substrate test. Format: in vitro ADME. Particulars: MDR1 expressing LLC-PK1 cells vs parent LLC-PK1 cells. The method, then:
1. MDR1 expressing LLC-PK1 cells and its parent cells were routinely cultured in Medium A (Medium 199 (Invitrogen) supplemented with 10% FBS (Invitrogen), gentamycin (0.05 mg/mL, Invitrogen) and hygromycin B (100 μg/mL, Invitrogen)) at 37° C. under 5% CO2/95% 02 gasses. For the transport experiments, these cells were seeded on Transwell (Registered trademark) insert (96-well, pore size: 0.4 μm, Coaster) at a density of 1.4×10^4 cells/insert and added Medium B (Medium 199 supplemented with 10% FBS and gentamycin at 0.05 mg/mL) to the feeder tray. These cells were incubated in a CO2 incubator (5% CO2/95% 02 gasses, 37° C.) and replace apical and basolateral culture medium every 48-72 hr after seeding. These cells were used between 4 and 6 days after seeding. 2. The medium in the culture insert seeded with MDR1 expressing cells or parent cells were removed by aspiration and rinsed by HBSS. The apical side (140 μL) or basolateral side (175 μL) was replaced with transport buffer containing reference substrates and the present invention and then an aliquot (50 μL) of transport buffer in the donor side was collected to estimate initial concentration of reference substrate and the present invention. After incubation for designed time at 37° C., an aliquot (50 μL) of transport buffer in the donor and receiver side were collected. Assay was performed by duplicate or triplicate. 3. Reference substrate and the present invention in the aliquot was quantified by LC/MS/MS.
Permeated amounts across monolayers of MDR1 expressing and parent cells were determined, and permeation coefficients (Pe) were calculated using Excel 2003 from the following equitation:
Pe (cm/sec)=Permeated amount (pmol)/area of cell membrane (cm^2)/initial concentration (nM)/incubation time (sec) Where, permeated amount was calculated from permeation concentration (nM, concentration of the receiver side) of the substance after incubation for the defined time (sec) multiplied by volume. (mL) and area of cell membrane was used 0.1433 (cm2). The efflux ratio was calculated using the following equation:
Efflux Ratio=Basolateral-to-Apical Pe/Apical-to-Basolateral Pe
The net flux was calculated using the following equation:
Net flux=Efflux Ratio in MDR1 expressing cells/Efflux Ratio in parent cells

The nature of another series: Metabolic stability test. It is filed as in vitro ADME. Conditions: human liver microsomes 0.5 mg protein/mL, NADPH, 37° C. Here is the method: Using a commercially available pooled human liver microsomes, a compound of the present invention was reacted for a constant time, a remaining rate was calculated by comparing a reacted sample and an unreacted sample, thereby, a degree of metabolism in liver was assessed.
A reaction was performed (oxidative reaction) at 37° C. for 0 minute or 30 minutes in the presence of 1 mmol/L NADPH in 0.2 mL of a buffer (50 mmol/L Tris-HCl pH 7.4, 150 mmol/L potassium chloride, 10 mmol/L magnesium chloride) containing 0.5 mg protein/mL of human liver microsomes. After the reaction, 50 μL of the reaction solution was added to 100 μL of a methanol/acetonitrile=1/1 (v/v), mixed and centrifuged at 3000 rpm for 15 minutes. The compound of the present invention in the supernatant was quantified by LC/MS/MS or solid phase extraction (SPE)/MS, and a remaining amount of the compound of the present invention after the reaction was calculated, letting a compound amount at 0 minute reaction time to be 100%.
For orientation: Liver microsomes are vesicles of endoplasmic reticulum, rich in cytochrome P450 enzymes.

Series [2] has as its target T2, human ether-a-go-go related gene (hERG) channel (Homo sapiens, UniProt Q12809).
T2 construct: expressed in transfected cells; host or cells: CHO cells
The series is described as follows: hERG test (whole cell patch clamp, QPatch). Conditions: CHO cells expressing hERG, tail peak current. It is filed as cell-based. The text has this: For the purpose of assessing risk of an electrocardiogram QT interval prolongation, effects on delayed rectifier K+ current (IKr), which plays an important role in the ventricular repolarization process of the compound of the present invention, was studied using CHO cells expressing human ether-a-go-go related gene (hERG) channel.
A cell was retained at a membrane potential of −80 mV by whole cell patch clamp method using an automated patch clamp system (QPatch; Sophion Bioscience A/S). After application of leak potential at −50 mV, IKr induced by depolarization pulse stimulation at +20 mV for 2 seconds and, further, repolarization pulse stimulation at −50 mV for 2 seconds was recorded.
After the generated current was stabilized, extracellular solution (NaCl: 145 mmol/L, KCl: 4 mmol/L, CaCl2:2 mmol/L MgCl2:1 mmol/L, 1 mmol/L, HEPES (4-(2-hydroxyethyl)-1-piperazineethanesulfonic acid: 10 mmol/L, glucose:10 mmol/L pH=7.4) in which the compound of the present invention have been dissolved at an objective concentration was applied to the cell under the room temperature condition for 10 minutes. From the recording IKr, an absolute value of the tail peak current was measured based on the current value at the resting membrane potential using an analysis software (QPatch assay software; Sophion Bioscience A/S). Further, the % inhibition relative to the tail peak current before application of the compound of the present invention was calculated, and compared with the vehicle-applied group (0.1% dimethyl sulfoxide solution) to assess influence of the compound of the present invention on IKr.

Here are results for six molecules from patent publication US20210261569A1, “FUSED HETEROCYCLIC DERIVATIVES HAVING SELECTIVE BACE1 INHIBITORY ACTIVITY” (Shionogi & Co., Ltd., priority 2018, published 2021).

T2 sequence (Q12809 whole entry): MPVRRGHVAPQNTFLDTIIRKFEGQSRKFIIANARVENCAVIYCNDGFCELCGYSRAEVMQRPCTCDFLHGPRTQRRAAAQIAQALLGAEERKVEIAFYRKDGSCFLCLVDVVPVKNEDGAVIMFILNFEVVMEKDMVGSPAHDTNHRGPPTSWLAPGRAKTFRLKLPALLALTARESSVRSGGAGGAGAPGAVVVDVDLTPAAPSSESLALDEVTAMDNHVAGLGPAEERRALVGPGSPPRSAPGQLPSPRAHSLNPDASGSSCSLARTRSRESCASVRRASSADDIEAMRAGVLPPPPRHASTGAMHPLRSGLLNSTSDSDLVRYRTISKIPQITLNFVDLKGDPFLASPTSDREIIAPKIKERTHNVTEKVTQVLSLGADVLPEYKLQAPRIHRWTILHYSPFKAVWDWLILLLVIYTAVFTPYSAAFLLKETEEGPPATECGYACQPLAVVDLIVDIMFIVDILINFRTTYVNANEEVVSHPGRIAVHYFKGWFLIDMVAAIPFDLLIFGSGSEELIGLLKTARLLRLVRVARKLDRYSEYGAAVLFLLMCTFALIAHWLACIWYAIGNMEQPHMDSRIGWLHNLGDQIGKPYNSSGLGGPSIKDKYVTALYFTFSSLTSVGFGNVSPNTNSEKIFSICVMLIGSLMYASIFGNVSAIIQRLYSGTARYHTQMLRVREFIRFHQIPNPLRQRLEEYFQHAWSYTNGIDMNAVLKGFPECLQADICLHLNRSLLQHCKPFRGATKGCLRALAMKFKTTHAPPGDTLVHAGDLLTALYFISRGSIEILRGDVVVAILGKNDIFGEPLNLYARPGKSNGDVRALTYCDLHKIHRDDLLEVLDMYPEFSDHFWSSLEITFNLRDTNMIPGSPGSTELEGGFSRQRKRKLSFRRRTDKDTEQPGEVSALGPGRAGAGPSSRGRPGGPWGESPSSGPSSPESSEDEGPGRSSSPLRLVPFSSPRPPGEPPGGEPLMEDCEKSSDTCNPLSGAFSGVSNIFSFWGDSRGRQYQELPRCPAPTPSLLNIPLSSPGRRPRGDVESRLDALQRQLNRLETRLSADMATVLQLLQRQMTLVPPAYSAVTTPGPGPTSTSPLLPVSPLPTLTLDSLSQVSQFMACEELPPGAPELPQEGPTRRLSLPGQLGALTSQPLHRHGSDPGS
T1 sequence (P08183 whole entry): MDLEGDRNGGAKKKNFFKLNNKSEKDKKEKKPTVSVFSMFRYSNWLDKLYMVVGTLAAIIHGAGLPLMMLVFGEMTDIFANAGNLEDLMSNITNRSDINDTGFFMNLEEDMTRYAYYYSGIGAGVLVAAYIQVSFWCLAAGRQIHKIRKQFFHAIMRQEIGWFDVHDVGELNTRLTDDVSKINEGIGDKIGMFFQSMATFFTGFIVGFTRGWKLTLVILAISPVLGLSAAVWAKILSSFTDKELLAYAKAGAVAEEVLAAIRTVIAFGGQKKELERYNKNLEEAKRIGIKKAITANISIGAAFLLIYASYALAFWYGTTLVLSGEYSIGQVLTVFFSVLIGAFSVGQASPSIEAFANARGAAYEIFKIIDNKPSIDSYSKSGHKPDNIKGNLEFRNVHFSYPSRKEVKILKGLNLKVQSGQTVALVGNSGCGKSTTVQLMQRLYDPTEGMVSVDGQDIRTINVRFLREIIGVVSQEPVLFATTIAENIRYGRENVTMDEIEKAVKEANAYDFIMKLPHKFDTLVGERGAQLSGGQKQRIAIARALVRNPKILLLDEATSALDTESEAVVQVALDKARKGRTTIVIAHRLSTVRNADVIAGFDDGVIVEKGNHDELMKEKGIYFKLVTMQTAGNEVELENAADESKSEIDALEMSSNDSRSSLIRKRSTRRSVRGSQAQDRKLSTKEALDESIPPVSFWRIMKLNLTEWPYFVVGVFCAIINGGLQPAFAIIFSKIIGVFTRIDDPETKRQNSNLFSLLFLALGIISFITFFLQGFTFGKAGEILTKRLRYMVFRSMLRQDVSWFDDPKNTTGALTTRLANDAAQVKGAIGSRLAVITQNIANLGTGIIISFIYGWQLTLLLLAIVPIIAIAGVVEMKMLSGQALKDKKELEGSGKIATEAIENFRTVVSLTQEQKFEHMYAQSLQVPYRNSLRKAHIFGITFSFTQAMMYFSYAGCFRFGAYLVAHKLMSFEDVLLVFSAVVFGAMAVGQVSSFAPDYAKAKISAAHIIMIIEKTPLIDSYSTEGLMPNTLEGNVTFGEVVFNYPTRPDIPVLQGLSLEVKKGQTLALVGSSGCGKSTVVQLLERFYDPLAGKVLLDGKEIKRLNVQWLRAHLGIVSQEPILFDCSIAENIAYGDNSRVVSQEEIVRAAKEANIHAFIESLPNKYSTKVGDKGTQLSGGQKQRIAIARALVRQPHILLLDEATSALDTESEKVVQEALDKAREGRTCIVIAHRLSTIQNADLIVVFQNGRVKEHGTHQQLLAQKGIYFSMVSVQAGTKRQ

With `C[C@H]1OC[C@H]2[C@@H]1OC(N)=N[C@]2(CF)c1cc(NC(=O)c2cnc(OCF)cn2)cc(F)c1F` [Compound I-070], the “P-gp ER ratio” value in series [1] is 3.8. In addition, the “Remaining rate (%) at 30 min” value in “Metabolic stability test” is recorded as 52%. Moreover, the “hERG inhibition (%) at 3 μM” value in series [2] turned out to be 9.4%.
For `C[C@@H]1OC[C@H]2[C@@H]1OC(N)=N[C@]2(CF)c1cc(NC(=O)c2cnc(OC(F)F)cn2)ccc1F` [Compound I-087], in that order: 5.8, 85% and 28.7%.
On to `CC1(C)OC[C@H]2[C@@H]1OC(N)=N[C@]2(CF)c1cc(NC(=O)c2cnc(OCF)cn2)ccc1F` [Compound I-096], for which, in series [1], the “P-gp ER ratio” value was 3.3. In addition, the “Remaining rate (%) at 30 min” value in the series “Metabolic stability test” is reported as 65%. In addition, in series [2], the “hERG inhibition (%) at 3 μM” value is on record as 19.4%.
Take `NC1=N[C@](CF)(c2cc(NC(=O)c3cnc(OCF)cn3)ccc2F)[C@H]2CO[C@@H](CF)[C@H]2O1` [Compound I-112]: the “P-gp ER ratio” value in series [1] came out at 5.3. Besides, the “Remaining rate (%) at 30 min” value in “Metabolic stability test” stood at 91%. Besides, the “hERG inhibition (%) at 3 μM” value in series [2] is listed as 5%.
In the case of `NC1=N[C@](CF)(c2cc(NC(=O)c3cnc(OCF)cn3)ccc2F)[C@H]2[C@H](CF)OC[C@H]2O1` [Compound I-114], the “P-gp ER ratio” value in series [1] worked out at 2.1. Further, the “Remaining rate (%) at 30 min” value in “Metabolic stability test” is 102%. Besides, the “hERG inhibition (%) at 3 μM” value in series [2] came out at 12.4%.
The matching figures for `NC1=N[C@](CF)(c2cc(NC(=O)c3cnc(OCF)cn3)ccc2F)[C@H]2[C@H](CCF)OC[C@H]2O1` [Compound I-115]: 3, 93% and 9.9%.
